Here are results for 21 compounds from patent US20240018122A1, “PYRIDAZINYL AMINO DERIVATIVES AS ALK5 INHIBITORS” (CHIESI FARMACEUTICI S.P.A., priority 2020, published 2024).

Where only a bound is given, the exact number is not on record here.

The IC50 is the midpoint of a concentration-inhibition curve.

For one assay, the target named is human ALK5 (Homo sapiens (Human), UniProt P36897). The experiment in a line: ADP-GLO Kinases assay, inhibitory activity on ALK5. The format is biochemical.
Sequence of human ALK5 (P36897 80-503 limits assumed): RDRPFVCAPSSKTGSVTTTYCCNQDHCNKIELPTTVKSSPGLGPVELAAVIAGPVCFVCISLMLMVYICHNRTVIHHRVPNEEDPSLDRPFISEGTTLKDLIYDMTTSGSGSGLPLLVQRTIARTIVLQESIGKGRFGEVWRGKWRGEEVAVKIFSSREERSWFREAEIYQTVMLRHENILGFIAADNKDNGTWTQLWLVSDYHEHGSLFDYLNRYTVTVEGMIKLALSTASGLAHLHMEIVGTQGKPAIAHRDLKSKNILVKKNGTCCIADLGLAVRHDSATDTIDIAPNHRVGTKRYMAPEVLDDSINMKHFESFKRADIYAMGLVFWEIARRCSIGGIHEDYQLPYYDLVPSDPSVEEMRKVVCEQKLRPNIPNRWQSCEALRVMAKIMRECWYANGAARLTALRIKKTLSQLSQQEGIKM
Details: not given
A general note: In ADP-Glo the light output rises with the ADP produced.
In turn, `CN1CCC(CN2CCN(C(=O)Oc3ccc4c(Nc5cnnc(-c6cc(Cl)ccc6F)c5)ccnc4c3)CC2)CC1` [Example 100, 4-{[6-(5-Chloro-2-Fluorophenyl)Pyridazin-4-Yl]Amino}Quinolin-7-Yl 4-[(1-Methylpiperidin-4-Yl)Methyl]Piperazine-1-Carboxylatate] came in with a 50% inhibitory concentration (IC50) of 1 to 5 nM. `CN1CCC(N2CCN(C(=O)Oc3ccc4c(Nc5cnnc(-c6cc(Cl)ccc6F)c5)ccnc4c3)CC2)CC1` [Example 103, 4-{[6-(5-Chloro-2-Fluorophenyl)Pyridazin-4-Yl]Amino}Quinolin-7-Yl 4-(1-Methylpiperidin-4-Yl)Piperazine-1-Carboxylate] returned an IC50 of 1 to 5 nM.

Still in this assay, the particulars now being: purified recombinant human ALK5 2.6 nM, TGFβ1 peptide substrate, 25° C, 150 min incubation, ADP-Glo detection; read-out: ALK5 IC50.
Turning to `COC(=O)C1CN(CCC(=O)Nc2cc(Nc3cc(-c4cc(Cl)ccc4F)nnc3C)ccn2)CCN1C` (stereo not drawn) [Example 94, Methyl 4-{2-[(4-{[6-(5-Chloro-2-Fluorophenyl)-3-Methylpyridazin-4-Yl]Amino}Pyridin-2-Yl)Carbamoyl]Ethyl}-1-Methylpiperazine-2-Carboxylate], the IC50 was below 1 nM. Regarding `Cc1nnc(-c2cc(Cl)ccc2F)cc1Nc1ccnc(NC(=O)CCN2CCN(C)C(C(=O)O)C2)c1` (stereo not drawn) [Example 95, 4-{2-[(4-{[6-(5-chloro-2-fluorophenyl)-3-methylpyridazin-4-yl]amino}pyridin-2-yl)carbamoyl]ethyl}-1-methylpiperazine-2-carboxylic acid], the IC50 was below 1 nM.

As for `COC(=O)CN1CCN(CC(=O)Nc2cc(Nc3cc(-c4cc(Cl)ccc4F)nnc3C)ccn2)CC1` [Example 96, methyl 2-(4-{[(4-{[6-(5-chloro-2-fluorophenyl)-3-methylpyridazin-4-yl]amino}pyridin-2-yl)carbamoyl]methyl}piperazin-1-yl)acetate], the IC50 is below 1 nM. With `COC(=O)CC1CN(CCC(=O)Nc2cc(Nc3cc(-c4cc(Cl)ccc4F)nnc3C)ccn2)CCN1` (stereo not drawn) [Example 97, Methyl 2-(4-{2-[(4-{[6-(5-Chloro-2-Fluorophenyl)-3-Methylpyridazin-4-Yl]Amino}Pyridin-2-Yl)Carbamoyl]Ethyl}Piperazin-2-Yl)Acetate], the IC50 was below 1 nM. Consider `COC(=O)CC1CN(CCC(=O)Nc2cc(Nc3cc(-c4cc(Cl)ccc4F)nnc3C)ccn2)CCN1C` (stereo not drawn) [Example 98, Methyl 2-(4-{2-[(4-{[6-(5-Chloro-2-Fluorophenyl)-3-Methylpyridazin-4-Yl]Amino}Pyridin-2-Yl)Carbamoyl]Ethyl}-1-Methylpiperazin-2-Yl)Acetate], for which the 50% inhibitory concentration (IC50) is below 1 nM. As to `COC(=O)C1CN(C)CCN1CCC(=O)Nc1cc(Nc2cc(-c3cc(Cl)ccc3F)nnc2C)ccn1` (stereo not drawn) [Example 99, Methyl 1-{2-[(4-{[6-(5-Chloro-2-Fluorophenyl)-3-Methylpyridazin-4-Yl]Amino}Pyridin-2-Yl)Carbamoyl]Ethyl}-4-Methylpiperazine-2-Carboxylate], the IC50 is below 1 nM.

Consider `COC(=O)CC1CN(C)CCN1CCC(=O)Nc1cc(Nc2cc(-c3cc(Cl)ccc3F)nnc2C)ccn1` (stereo not drawn) [Example 101, methyl 2-(1-{2-[(4-{[6-(5-chloro-2-fluorophenyl)-3-methylpyridazin-4-yl]amino}pyridin-2-yl)carbamoyl]ethyl}-4-methylpiperazin-2-yl)acetate], for which the half-inhibitory concentration (IC50) is below 1 nM.

Turning to `COC(=O)CC1CNCCN1CCC(=O)Nc1cc(Nc2cc(-c3cc(Cl)ccc3F)nnc2C)ccn1` (stereo not drawn) [Example 102, Methyl 2-(1-{2-[(4-{[6-(5-Chloro-2-Fluorophenyl)-3-Methylpyridazin-4-Yl]Amino}Pyridin-2-Yl)Carbamoyl]Ethyl}Piperazin-2-Yl)Acetate], the IC50 was below 1 nM. Take `CNCCN1CCN(CCC(=O)Nc2cc(Nc3cc(-c4cc(Cl)ccc4F)nnc3C)ccn2)CC1` [Example 104, N-(4-{[6-(5-Chloro-2-Fluorophenyl)-3-Methylpyridazin-4-Yl]Amino}Pyridin-2-Yl)-3-{4-[2-(Methylamino)Ethyl]Piperazin-1-Yl}Propanamide]: the IC50 is below 1 nM. Still for that read-out and setting: the figure for `COC(=O)N(C)CCN1CCN(CCC(=O)Nc2cc(Nc3cc(-c4cc(Cl)ccc4F)nnc3C)ccn2)CC1` [Example 105, methyl N-[2-(4-{2-[(4-{[6-(5-chloro-2-fluorophenyl)-3-methylpyridazin-4-yl]amino}pyridin-2-yl)carbamoyl]ethyl}piperazin-1-yl)ethyl]-N-methylcarbamate] is below 1 nM. Take `CNCCN1CCN(CC(=O)Nc2cc(Nc3cc(-c4cc(Cl)ccc4F)nnc3C)ccn2)CC1` [Example 106, N-(4-{[6-(5-Chloro-2-Fluorophenyl)-3-Methylpyridazin-4-Yl]Amino}Pyridin-2-Yl)-2-{4-[2-(Methylamino)Ethyl]Piperazin-1-Yl}Acetamide]: the IC50 was below 1 nM. On to `COC(=O)N(C)CCN1CCN(CC(=O)Nc2cc(Nc3cc(-c4cc(Cl)ccc4F)nnc3C)ccn2)CC1` [Example 107, Methyl N-[2-(4-{[(4-{[6-(5-Chloro-2-Fluorophenyl)-3-Methylpyridazin-4-Yl]Amino}Pyridin-2-Yl)Carbamoyl]Methyl}Piperazin-1-Yl)Ethyl]-N-Methylcarbamate], for which the IC50 was below 1 nM. As for `Cc1nnc(-c2cc(Cl)ccc2F)cc1Nc1ccnc(NC(=O)CN2CCN(CCN)CC2)c1` [Example 108, 2-[4-(2-Aminoethyl)Piperazin-1-Yl]-N-(4-{[6-(5-Chloro-2-Fluorophenyl)-3-Methylpyridazin-4-Yl]Amino}Pyridin-2-Yl)Acetamide], the 50% inhibitory concentration (IC50) is below 1 nM. With `COC(=O)NCCN1CCN(CC(=O)Nc2cc(Nc3cc(-c4cc(Cl)ccc4F)nnc3C)ccn2)CC1` [Example 109, methyl N-[2-(4-{[(4-{[6-(5-chloro-2-fluorophenyl)-3-methylpyridazin-4-yl]amino}pyridin-2-yl)carbamoyl]methyl}piperazin-1-yl)ethyl]carbamate], the half-inhibitory concentration (IC50) is below 1 nM.

For the compound `Cc1nnc(-c2cc(Cl)ccc2F)cc1Nc1ccnc(NC(=O)CCN2C[C@@H]3C[C@H]2CN3C)c1` [Example 111, N-(4-{[6-(5-Chloro-2-Fluorophenyl)-3-Methylpyridazin-4-Yl]Amino}Pyridin-2-Yl)-3-[(1S,4S)-5-Methyl-2,5-Diazabicyclo[2.2.1]Heptan-2-Yl]Propanamide], the IC50 is below 1 nM. In the case of `O=C(Oc1ccc2c(Nc3cnnc(-c4cc(Cl)ccc4F)c3)ccnc2c1)N1CCC2(CCNCC2)C1` [Example 112, 4-{[6-(5-Chloro-2-Fluorophenyl)Pyridazin-4-Yl]Amino}Quinolin-7-Yl 2,8-Diazaspiro[4.5]Decane-2-Carboxylate], the IC50 is below 1 nM. Regarding `COC(=O)C1CN(CCC(=O)Nc2cc(Nc3cc(-c4cc(Cl)ccc4F)nnc3C)ccn2)CCN1C(C)C` (stereo not drawn) [Example 113, Methyl 4-{2-[(4-{[6-(5-Chloro-2-Fluorophenyl)-3-Methylpyridazin-4-Yl]Amino}Pyridin-2-Yl)Carbamoyl]Ethyl}-1-(Propan-2-Yl)Piperazine-2-Carboxylate], the 50% inhibitory concentration (IC50) is below 1 nM. For `CN1CC2(CCN(C(=O)Oc3ccc4c(Nc5cnnc(-c6cc(Cl)ccc6F)c5)ccnc4c3)CC2)C1` [Example 114, 4-{[6-(5-Chloro-2-Fluorophenyl)Pyridazin-4-Yl]Amino}Quinolin-7-Yl 2-Methyl-2,7-Diazaspiro[3.5]Nonane-7-Carboxylate], the concentration for half-maximal inhibition (IC50) is below 1 nM. On the same count and under the same terms, the figure for `CN1CCC2(CC1)CN(C(=O)Oc1ccc3c(Nc4cnnc(-c5cc(Cl)ccc5F)c4)ccnc3c1)C2` [Example 115, 4-{[6-(5-Chloro-2-Fluorophenyl)Pyridazin-4-Yl]Amino}Quinolin-7-Yl 7-Methyl-2,7-Diazaspiro[3.5]Nonane-2-Carboxylate] is below 1 nM.
